Experimental data as given in patent US11446265B2, “Reagents, compositions and methods for improving viability and function of cells, tissues and organs” (TARGA BIOMEDICAL, priority 2016, dated 2022).

Columns and labels:
H9c2 cardiomyoblasts [1] = assay: H9c2 viability after oxidative challenge, direct treatment with Celastrol combinations; format: cell-based, rat; conditions: 1-hour treatment combined with Celastrol; 1 mM H2O2 for 1 hour
[2] = tested on: human mesenchymal stem cells (hMSC); assay: mRNA expression in hMSC by real-time PCR; format: cell-based; conditions: FIGS. 25A, 25B, 26A to 26D
Excerpt: FIG. 25A is a table representing mRNA expression of selected genes measured by real-time PCR in human mesenchymal stem cells (hMSC) conditioned with Celastrol alone or in combination with selected adjunct agents. Results are expressed as fold change versus Vehicle-treated cells.
FIG. 25B is a table representing mRNA expression of selected genes measured by real-time PCR in human mesenchymal stem cells (hMSC) conditioned with selected Celastrol analogs alone or in combination with selected adjunct agents. Results are expressed as fold change versus Vehicle-treated cells.
Results are expressed as fold change versus Vehicle-treated cells. (Arbitrary angiogenic index: (VEGFa+FGF2+SDF1)*2) (A=Additive effect; S=Synergistic effect).
To test the second main condition, MSCs were treated with the candidate pharmaco-optimizers for 1 hour, followed by 3 hours washout period. Cell mRNA was extracted and expression of genes of interest was quantified by real time PCR. In additional MSC cultures, cells were treated for one hour, washed and cultured in low serum media for 24 hours. The media containing paracrine factors secreted by MSCs was then placed in contact with H9c2 cardiomyoblast cell line. H9c2 cells were then submitted to the hypoxia/serum starvation (<1% O2 in hypoxia chamber in low serum media for 48 hours) or oxidative stress (incubation in media for 1 hour spiked with 0-1 mM H2O2). Viability status of H9c2 cells was evaluated using the LIVE/DEAD assay as detailed above.

[3] = tested on: human mesenchymal stem cells (hMSCs); assay: VEGFa protein secreted by hMSC into culture medium; format: cell-based; conditions: 1-hour treatment combined with Celastrol
H9c2 cardiomyoblasts [4] = assay: HO-1 and VEGFa mRNA in H9c2 cardiomyoblasts by real-time PCR; format: cell-based, rat; conditions: H9c2, 1-hour with Celastrol plus adjunct, 3 hour washout in normoxic or hypoxic condition
Excerpt: Results are expressed as fold change versus Vehicle-treated h9c2.

H9c2 cardiomyoblasts [5] = assay: H9c2 viability under hypoxia/serum starvation (LIVE/DEAD); format: cell-based, rat; conditions: 1 uM
Method: For survival to hypoxic challenge and oxidative challenge, H9c2 cardiomyoblasts are submitted to the hypoxia/serum starvation (<1% O2 in hypoxia chamber in low serum media for 48 hours) or oxidative stress (incubation in media for 1 hour spiked with 0-1 mM H2O2). Viability status of H9c2 cells was evaluated using the LIVE/DEAD assay.

H9c2 cardiomyoblasts [6] = assay: H9c2 viability under hypoxia/reoxygenation stress; format: cell-based, rat; conditions: 1 uM
Method: Next, the hypoxia/reoxygenation challenge is performed. Briefly, viability analysis was performed in rat H9c2 cardiomyoblasts as previously reported. For hypoxia/reoxygenation stress, cells were cultured in DMEM no glucose (Life Technologies), serum starved and placed in hypoxic conditions (<1% O2) for 18 h. At reoxygenation (normoxic conditions), cells were treated with Celastrol (10^−10 to 10^−6 mol/L, Cayman Chemical, Ann Arbor, Mich.), Celastrol analogs or vehicle (Dimethyl sulfoxide (DMSO), Sigma-Aldrich Canada, Oakville, ON; final concentration<1% v/v) in DMEM high glucose 1% FBS for 1 h, then reoxygenation was continued in DMEM high glucose for an additional 5 h.

[7] = tested on: heat shock response (HSR); assay: Heat shock response luciferase reporter assay in H9c2; format: cell-based, rat; conditions: H9c2, 10E-5 to 10E-10M, 4 hours, 3 hours washout
Method: (§1) H9c2 rat cardiomyoblasts were seeded at a density of 5,000 cells per well in 96 well plates in DMEM 10% FBS complete medium and transfected using lipofectamine with the Cignal Reporter Assay Heat shock response and Antioxidant response kits (SABiosciences, Qiagen) according to the manufacturers' protocol.

[8] = tested on: antioxidant responsive elements (ARE); assay: Antioxidant response luciferase reporter assay in H9c2; format: cell-based, rat; conditions: H9c2, 10E-5 to 10E-10M, 4 hours, 3 hours washout
Method: as §1

Compound: O=C(C=Cc1ccccc1O)C=Cc1ccccc1O [Analog 2HBA, Bis(2-hydroxybenzylidene)acetone]
- viability of H9c2 cells following oxidative challenge (H9c2 cardiomyoblasts [1]): synergistic increase in viability
- ranking as adjunct agent in combination with Celastrol or Celastrol analogs (gene expression) [2]: among top adjunct agents
- VEGF protein after 48 hours in hypoxic condition ([3]; hypoxic, compared with normal culture): even greater expression of VEGF protein
- VEGF protein after 48 hours in normal culture ([3]; normoxic): additive to synergistic increase in VEGF protein
- mRNA expression of HO-1 (H9c2 cardiomyoblasts [4]): increased mRNA expression
- mRNA expression of VEGFa (H9c2 cardiomyoblasts [4]): increased mRNA expression

Compound: Cc1c(O)c(O)cc2c1[C@H](C[N+](=O)[O-])C=C1[C@@]2(C)CC[C@@]2(C)[C@@H]3C[C@](C)(C(=O)O)CC[C@]3(C)CC[C@]12C [Analog 2]
- protection of H9c2 cardiomyoblasts from hypoxia (H9c2 cardiomyoblasts [5]): effective
- protection of H9c2 cardiomyoblasts from hypoxia/reoxygenation stress (H9c2 cardiomyoblasts [6]): effective

Compound: CC1=C(O)C(=O)C=C2C1=CC=C1[C@@]2(C)CC[C@@]2(C)[C@@H]3C[C@](C)(C(=O)NCCO)CC[C@]3(C)CC[C@]12C [Analog 3]
- ranking as HSP90 inhibitor from expression of HSPs, growth factors, antioxidant proteins/enzymes, cytokines, matrix remodeling proteins [2]: best HSP90 inhibitors
- protection of H9c2 cardiomyoblasts from hypoxia (H9c2 cardiomyoblasts [5]): effective
- protection of H9c2 cardiomyoblasts from hypoxia/reoxygenation stress (H9c2 cardiomyoblasts [6]): effective
- stimulation of reporter gene controlled by heat shock responsive elements (HSR) [7]: among the most potent and efficient compounds tested
- stimulation of reporter gene controlled by antioxidant responsive elements (ARE) [8]: among the most potent and efficient compounds tested

Compound: CC1=C(O)C(=O)C=C2C1=CC=C1[C@@]2(C)CC[C@@]2(C)[C@@H]3C[C@](C)(C(=O)NO)CC[C@]3(C)CC[C@]12C [Analog 4]
- protection of H9c2 cardiomyoblasts from hypoxia (H9c2 cardiomyoblasts [5]): effective
- protection of H9c2 cardiomyoblasts from hypoxia/reoxygenation stress (H9c2 cardiomyoblasts [6]): effective
- stimulation of reporter gene controlled by heat shock responsive elements (HSR) [7]: among the most potent and efficient compounds tested
- stimulation of reporter gene controlled by antioxidant responsive elements (ARE) [8]: among the most potent and efficient compounds tested

Compound: CC(C)c1cc2c(c(O)c1O)[C@@]13CCCC(C)(C)[C@@H]1C[C@@H]2OC3=O [Carnosol]
- ranking as adjunct agent in combination with Celastrol or Celastrol analogs (gene expression) [2]: among top adjunct agents
